A short description of series [1]: General blood and biochemical examinations, mice with Suit2-GR sc tumor. Conditions: Suit2-GR sc Tumor; 10 mg/kg BW i.v. once a week for three weeks; blood one week after final treatment.
Method: (§5) Subcutaneous tumor models were created by subcutaneously transplanting gemcitabine-resistant pancreatic cancer SUIT2-GR cells and large intestine cancer HCT116 cells to the thighs of nude mice. After tumors having a volume of 50 mm^3 were formed, 10 mg/kg BW of #10AmNA YB-1 antisense was administered from the caudal veins once a week over three weeks. The tumor diameters were measured over time.
A short description of series [2]: General blood and biochemical examinations, mice with HCT116 sc tumor. As to conditions: 10 mg/kg BW i.v. once a week for three weeks, blood one week after final treatment.
Method: as §5
The subject of series [3] is human pancreatic cancer SUIT2 cell strain, parent strain. In words: Gemcitabine sensitivity of SUIT2 parent strain. Format: cell-based. Conditions: SUIT-2. As for the experimental part: (§1) A human pancreatic cancer SUIT2 cell strain was prepared by culturing pancreatic cancer cells resistant to the anticancer agent, gemcitabine, for a long period of time in a medium containing gemcitabine at a low concentration (IC50 value, 100 nM for the resistant strain vs. 5 nM for the parent strain). Subcutaneous tumors were prepared in the same manner as that of Example 10, and 200 μg/200 μL of YB-1 ASO AmNA or control antisense was administered into the blood according to the same protocol (once every two weeks, total 2 times).

For series [4], the system named is human pancreatic cancer SUIT2 cell strain, resistant strain. In words: Gemcitabine sensitivity of gemcitabine-resistant SUIT2 strain. As to conditions: SUIT-2. Format: cell-based. On the procedure: as §1
Series [5] has as its system HPAEC cells. In words: Cell cycle analysis by PI flow cytometry, HPAEC. Format: cell-based. Conditions: 5 nM, 72 hours. On the procedure:
(§2) In order to elucidate the mechanism of the pancreatic cancer cell and endothelial cell proliferation inhibitory effect observed in Example 2, YB-1 ASO BNA (TCTcctgcaccCTGg, SEQ ID NO: 2, the parts of the capital letters in the sequence correspond to BNAs, the same shall apply to the following examples) was introduced at a concentration of 5 nM into the endothelial cells (1×10^5/well) under the same conditions as mentioned above. After 72 hours from the introduction, the cells were incubated with PI (1 μg/ml) at 37° C. for 30 minutes, and then cell cycle analysis was performed by using a flow cytometer (FACS CantoII).
For orientation: A flow cytometer gives signals particle by particle.

For series [6], the system named is vascular endothelial HUVEC cells. In words: Annexin V-FITC apoptosis observation. Type of series: cell-based.
Series [7] concerns HUVEC. In words: Cell cycle analysis by PI flow cytometry, HUVEC. Conditions: 5 nM, 72 hours. Type of series: cell-based. As for the experimental part: as §2
The nature of series [8]: Safety of administration of YB-1 ASO BNA into blood, blood biochemical examinations.
Method: YB-1 ASO BNA (indicated as “ASO-YBX1” in FIG. 7) at a concentration of 100 μg/200 μL or 200 μg/200 μL was administered once into the blood of nude mice from the caudal veins. After 48 hours, blood was collected, and examined by blood biochemical examinations for ALT, T-Bil, BUN, and creatinin in order to evaluate the liver and kidney functions.
Series [9] has as its system HCT116 large intestine cancer cells. In words: Administration of YB-1 ASO BNA into blood, HCT116 subcutaneous tumor. Format: in vivo, nude mice. Conditions: 200 μg/200 μL caudal vein, once a week, total 3 times. An excerpt:
(§3) The SUIT2 pancreatic cancer cells or HCT116 large intestine cancer cells were subcutaneously transplanted into the thighs of nude mice to prepare subcutaneous tumors in a size of 6 to 7 mm. […] YB-1 ASO BNA suppressed proliferation of the tumors to a size of ¼ to ⅕ of those observed with the control antisense BNA (FIG. 5).

Series [10] concerns YB-1. In words: Screening of antisense oligo-nucleic acids by YB-1 expression-inhibitory ability in cancer cells (Lipofectamine RNAiMax). Type of series: cell-based, human.
Series [11] relates to SUIT2 pancreatic cancer cells. In words: Administration of YB-1 ASO BNA into blood, SUIT2 subcutaneous tumor. Conditions: 200 μg/200 μL caudal vein, once a week, total 3 times. Format: in vivo, nude mice.
Text: as §3

Series [12] relates to YB-1 and CD31. In words: Immunostaining of YB-1 and CD31 in frozen tumor sections. Type of series: in vivo, nude mice. Conditions: HCT116 model; vs control antisense BNA.
The subject of series [13] is CDK1 and Cyclin B1. In words: Protein expression of CDK1 and Cyclin B1 in HUVEC and HPAEC cells. Type of series: cell-based. Conditions: vs control antisense oligonucleotide.
Series [14] has as its system vascular endothelial cells. In words: Proliferation by MTT assay, endothelial cells. Type of series: cell-based. Conditions: final concentration 5 nM, vs control antisense oligo-nucleic acid. On the procedure:
(§4) Then, pancreatic cancer and vascular endothelial cell proliferation-suppressing effects of ASO#10 (also referred to as “YB-1 ASO”, TCTcctgcaccCTGg, SEQ ID NO: 2) were examined. The cells were inoculated into wells of a 96-well plate at a density of 60% confluent, ASO#10 was introduced into the pancreatic cancer cells at a final concentration of 50 nM, and endothelial cells at a final concentration of 5 nM on the next day by using the gene transduction reagent Lipofectamine RNAiMax, and then the proliferation ability was periodically measured by the MTT assay method. […] In addition, it was also confirmed that gastric cancer and breast cancer are also knocked down by ASO#10.
(In general: Tetrazolium dyes change colour on reduction, which living cells bring about.)

For series [15], the system named is pancreatic cancer cells. In words: Proliferation by MTT assay, pancreatic cancer cells. Format: cell-based. Conditions: final concentration 50 nM, vs control antisense oligo-nucleic acid. As for the experimental part:
as §4

Series [16] has as its system MiaPaCa-luc pancreatic cancer cells. In words: Local administration into MiaPaCa-luc subcutaneous tumors, IVIS imaging. Conditions: 10 μM with atelocollagen 1:1, local, once a week, total twice; vs control antisense oligo BNA. Type of series: in vivo, nude mice. As for the experimental part:
The MiaPaCa-luc pancreatic cancer cells stably expressing luciferase were subcutaneously transplanted into the thighs of nude mice to prepare subcutaneous tumors in a size of 6 to 7 mm. A mixture of YB-1 ASO BNA (final concentration, 10 μM) and atelocollagen implant at a volume ration of 1:1 was locally administered into the tumors (once a week, total twice), and the tumor volume (luciferase activity) was evaluated over time by IVIS imaging.

The subject of series [17] is YB-1. In words: YB-1 expression in tumor, liver, kidney after administration into blood, real-time RT-PCR. Format: in vivo, nude mice. Conditions: HCT116 model, 200 μg/200 μL caudal vein, once a week, total 2 times, 48 hours after final administration. As for the experimental part:
After 48 hours from the final administration, subcutaneous tumors, livers, and kidneys were extracted, RNAs were extracted, and YB-1 expression was analyzed by real-time RT-PCR.
(Real-time PCR tracks product formation cycle by cycle.)

[BNA] = bridged nucleic acid nucleotide (BNA), bridge type not specified for this compound; d = 2'-deoxy (DNA)

In [1], “CATttcgaagtACTc (antisense CATTTCGAAGTACTC; AmNA-modified units marked by uppercase, key not given here) [Ctrl]” came in with an ALT of 45 ± 19 IU/L, an AST of 170 ± 183 IU/L, a BUN of 27.9 ± 5.4 mg/dL and a CRE of 0.10 ± 0.03 mg/dL. Besides, in [1], the HCT is recorded as 38.5 ± 2.1%, the HGB came to 12.2 ± 0.6 g/dL, the PLT is listed as 100.5 ± 33.3 ×10^4/μl and the RBC is given as 779 ± 39 ×10^4/μl. For the same molecule, in series [1], the T-BIL came out at 0.03 ± 0.01 mg/dL and the WBC is recorded as 29 ± 12 ×10^2/μl. In series [2], the ALT was determined as 26 ± 3 IU/L, the AST came out at 80 ± 10 IU/L, the BUN turned out to be 21.2 ± 2.0 mg/dL and the CRE came out at 0.07 ± 0.03 mg/dL. Moreover, in series [2], the HCT is given as 35.7 ± 2.7%, the HGB is recorded as 13.1 ± 0.3 g/dL, the PLT is 136.2 ± 10.8 ×10^4/μl and the RBC is on record as 715 ± 55 ×10^4/μl. Also, in series [2], the T-BIL is 0.06 ± 0.02 mg/dL and the WBC is on record as 48 ± 8 ×10^2/μl.

In general, IC50 refers to the midpoint of a concentration-inhibition curve. For the molecule `Nc1ccn([C@@H]2O[C@H](CO)[C@@H](O)C2(F)F)c(=O)n1` [gemcitabine], the IC50 in series [3] came out at 5 nM; in series [4] it was 100 nM.

In the case of “CATttcgaagtACTc (antisense CATTTCGAAGTACTC; sugars from the 5' end [BNA]3 d8 [BNA]3 d1, backbone and methylation of C not given here) [control antisense oligo-BNA, reference compound]”, the G2/M fraction in series [5] is 28.5%; in series [7], 22.1%. The subG1 fractionation in series [5] was 1.3%; in series [7], 2.0%. Besides, in series [6], the “Annexin V-positive cells” value was “hardly observed”. In series [8] (100 μg/200 μL or 200 μg/200 μL once, caudal vein, 48 hours), the “ALT, T-Bil, BUN, creatinin (liver and kidney functions)” value is “any functional abnormality was not observed”. Besides, the “liver function markers AST and T-Bil” value in series [8] (repeatedly administered 3 times) is listed as “did not show any functional abnormality”.

As for “TCTcctgcaccCTGg (TCTCCTGCACCCTGG; chemistry not fully specified) [ASO#10]”, the “tumor size as fraction of that with control antisense BNA” value in series [9] and in series [11] was “¼ to ⅕” each time. For the same molecule, the “YB-1 knockdown in gastric cancer and breast cancer” value in series [10] was “knocked down”. The G2/M fraction in series [5] came to 14.0%; in [7], 14.5%. The subG1 fractionation in series [5] was determined as 18.7%; in series [7], 17.7%. In addition, the “Annexin V-positive cells” value in [6] is “increase in Annexin V-positive cells”. For the same molecule, in [12], the “expression of YB-1 and CD31 in tumor tissues (immunostaining)” value is “reduced”. The “expression levels of CDK1 and Cyclin B1” value in series [13] is reported as “clearly suppressed”. In addition, the “endothelial cell proliferation inhibitory effect” value in series [14] is reported as “Significantly higher”. Moreover, the “pancreatic cancer cell proliferation inhibitory effect” value in series [15] is recorded as “Significantly higher”. Further, the “tumor volume (luciferase activity)” value in [16] is recorded as “significant suppression”. Further, the results for the “YB-1 expression in the tumors, livers, and kidneys as fraction of control antisense BNA” value in series [17] (listed as YB-1 ASO BNA) and in series [17] (listed as YB-1 antisense oligo BNA) were “about ⅓” and “suppresses expression of YB-1”, respectively.

The record behind these values is US20170211073A1, “ANTISENSE ANTINEOPLASTIC AGENT” (priority 2014, published 2017).
